Assay results published in article PMC11945486, “TAS1R2/TAS1R3 Single-Nucleotide Polymorphisms Affect Sweet Taste Receptor Activation by Sweeteners: The SWEET Project” (Nutrients, 2025).
Read-outs that look alike come from different tables or passages of the source. No end group written: not given here.

T1: human TAS1R2-WT/TAS1R3-F749S (Homo sapiens, UniProt Q7RTX0+Q8TE23, F749S)
T1 construct: expressed in transfected cells; host or cells: HEK293T stably expressing Gα16gust44
T1 sequence (Q8TE23 20-839): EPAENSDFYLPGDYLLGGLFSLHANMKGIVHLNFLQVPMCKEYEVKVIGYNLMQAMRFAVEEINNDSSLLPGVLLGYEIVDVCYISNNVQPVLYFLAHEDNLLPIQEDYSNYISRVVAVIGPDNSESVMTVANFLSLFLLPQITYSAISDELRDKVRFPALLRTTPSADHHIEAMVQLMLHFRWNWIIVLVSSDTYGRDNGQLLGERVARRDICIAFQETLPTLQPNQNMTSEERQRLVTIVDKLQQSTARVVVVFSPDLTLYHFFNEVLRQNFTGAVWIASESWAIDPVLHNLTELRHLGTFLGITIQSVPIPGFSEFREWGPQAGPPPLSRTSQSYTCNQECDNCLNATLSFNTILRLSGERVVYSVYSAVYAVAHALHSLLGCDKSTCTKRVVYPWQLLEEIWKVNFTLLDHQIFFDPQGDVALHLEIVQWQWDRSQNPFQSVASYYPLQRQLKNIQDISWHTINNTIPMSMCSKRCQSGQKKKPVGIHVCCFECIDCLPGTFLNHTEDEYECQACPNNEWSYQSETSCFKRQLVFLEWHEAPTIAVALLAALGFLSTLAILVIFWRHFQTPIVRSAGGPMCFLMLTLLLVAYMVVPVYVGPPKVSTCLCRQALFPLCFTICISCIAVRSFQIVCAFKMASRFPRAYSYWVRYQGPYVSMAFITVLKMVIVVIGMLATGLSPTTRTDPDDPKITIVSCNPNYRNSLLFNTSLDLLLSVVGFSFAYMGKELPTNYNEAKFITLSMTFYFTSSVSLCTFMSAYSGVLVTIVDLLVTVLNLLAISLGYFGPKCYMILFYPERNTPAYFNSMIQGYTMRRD
T1 sequence (Q7RTX0 21-852 F749S): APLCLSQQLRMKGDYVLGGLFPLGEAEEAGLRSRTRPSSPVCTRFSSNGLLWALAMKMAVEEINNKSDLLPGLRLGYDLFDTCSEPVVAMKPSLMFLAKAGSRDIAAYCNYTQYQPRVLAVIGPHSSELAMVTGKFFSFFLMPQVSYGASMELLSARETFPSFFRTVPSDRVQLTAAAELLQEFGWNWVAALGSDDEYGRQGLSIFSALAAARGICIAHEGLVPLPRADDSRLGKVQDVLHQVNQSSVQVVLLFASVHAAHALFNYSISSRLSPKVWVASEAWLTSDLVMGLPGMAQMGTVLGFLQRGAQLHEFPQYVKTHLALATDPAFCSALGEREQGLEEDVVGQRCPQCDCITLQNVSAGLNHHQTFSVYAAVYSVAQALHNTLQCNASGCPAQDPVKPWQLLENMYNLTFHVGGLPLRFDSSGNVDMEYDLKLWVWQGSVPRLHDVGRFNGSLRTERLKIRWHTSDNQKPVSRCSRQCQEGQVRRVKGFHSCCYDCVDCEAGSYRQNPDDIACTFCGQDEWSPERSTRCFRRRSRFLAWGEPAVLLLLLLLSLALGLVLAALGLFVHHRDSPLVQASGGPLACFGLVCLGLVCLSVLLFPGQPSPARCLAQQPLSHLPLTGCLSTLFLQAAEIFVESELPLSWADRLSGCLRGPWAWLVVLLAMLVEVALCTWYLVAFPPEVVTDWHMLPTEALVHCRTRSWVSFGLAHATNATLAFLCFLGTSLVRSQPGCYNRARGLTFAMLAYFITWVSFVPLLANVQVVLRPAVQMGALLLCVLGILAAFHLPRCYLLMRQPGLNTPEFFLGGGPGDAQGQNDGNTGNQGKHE

B1: thaumatin (protein)
chain: ATFEIVNRCSYTVWAAASKGDAALDAGGRQLNSGESWTINVEPGTKGGKIWARTDCYFDDSGSGICKTGDCGGLLRCKRFGRPPTTLAEFSLNQYGKDYIDISNIKGFNVPMDFSPTTRGCRGVRCAADIVGQCPAKLKAPGGGCNDACTVFQTSEYCCTTGKCGPTEYSRFFKRLCPDAFSYVLDKPTTVTCPGSSNYRVTFCPTA
modifications: Eight disulfides
notes: sweet-tasting plant protein, E957

Target: T1, human TAS1R2-WT/TAS1R3-F749S
Assay: Calcium mobilisation assay, TAS1R2-WT with TAS1R3 variant F749S
Format: cell-based
Conditions: for Max ΔF/F0: maximal signal amplitude
Source text: The coding sequences for TAS1R2 and TAS1R3 were commercially synthesised, and the human codon was optimised for expression in human cells. The coding sequences of human TAS1R2 and TAS1R3 were subcloned and inserted into the mammalian expression vectors pcDNA6/myc-HisA and pcDNA4/myc-HisA (Invitrogen; Thermo Fisher Scientific; Illkirch, France) between the EcoRI and NotI restriction sites, generating the plasmids pcDNA6-TAS1R2 and pcDNA4-TAS1R3, respectively. To increase protein expression in mammalian cells, an upstream start codon was used, which was a sequence called MAX, corresponding to the QBI SP163 element also described in pcDNA4-HisMax (Invitrogen; Thermo Fisher Scientific; Illkirch, France). To measure the expression level of the receptor by immunohistochemistry, we used the FLAG sequence ([…]) in the C-terminal position, which encodes the FLAG tag epitope. SNP variants of TAS1R2 and TAS1R3 were constructed based on […], respectively, using site-directed mutagenesis (Genewiz; Leipzig, Germany).
The HEK293T cells were kindly provided by Jay P. Slack (Givaudan Flavors Corporation; Cincinnati, OH, USA). HEK293T cells stably transfected with Gα16gust44 [43, 67] were seeded in poly-D-lysine-coated clear-bottom black 96-well plates (0.35 × 10^5 cells/well) in high-glucose DMEM supplemented with 2 mM GlutaMAX, 10% dialysed foetal bovine serum with penicillin/streptomycin and G418 (400 μg/mL) at 37 °C and 6.3% CO2 in a humidified atmosphere as previously reported. […] As a negative control, HEK293T cells were mock-transfected with the empty expression vector. After a further 24 h of incubation, the HEK293T cells were washed with C1 buffer (130 mM NaCl, 5 mM KCl, 10 mM HEPES pH 7.4 and 2 mM CaCl2). The 96-well plates containing the cells were then stimulated with sweet-tasting compounds. […] Different concentration ranges were tested depending on the sweet compound injected. The Ca^2+ changes were expressed as fractional changes in fluorescent light intensity: ΔF/F = (F − F0)/F0, where F was the fluorescent light intensity at each point, and F0 was the value of emitted fluorescent light prior to stimulus application. To calculate dose–response relationships, the changes in fluorescence upon stimulus application were averaged, mock-subtracted and baseline-corrected. The dose–response data obtained were adjusted using a 4-parameter logistic equation. The half-maximal effective concentrations (EC50 values) and maximal signal amplitudes were calculated using SigmaPlot software (version 15.0) (Systat Software; San Jose, CA, USA).
For in vitro calcium mobilisation assay performed on hTAS1R2-SNPs, hTAS1R3-SNPs and mTAS1R3-I60T, 6 to 7 concentrations were tested for each sweet compound, plus buffer alone. All concentration–receptor combinations were measured in duplicate, and each experiment was repeated at least 4 times (8 wells/concentration). Results were expressed for each concentration as ΔF/F mean ± SEM and represented as dose–response curves.

Molecule | R1 = Variant EC50/WT EC50 | Max ΔF/F0 | EC50 (read-out: EC50) [µM] | EC50 (brazzein) [µg/mL]
C=C(C)[C@@H]1CC=C(/C=N/O)CC1 [Perillartine, perillartine] | 0.9 | 1.90 ± 0.30 | 12.1 ± 6.1 | 
O=S(=O)(O)NC1CCCCC1 [Cyclamate, cyclamate] |  |  | 3430 ± 1990 | 
C=C1C[C@@]23CC[C@H]4[C@@](C)(CCC[C@@]4(C)C(=O)O[C@@H]4O[C@H](CO)[C@@H](O)[C@H](O[C@@H]5O[C@H](CO)[C@@H](O)[C@H](O)[C@H]5O)[C@H]4O[C@@H]4O[C@H](CO)[C@@H](O)[C@H](O)[C@H]4O)[C@@H]2CC[C@]1(O[C@@H]1O[C@H](CO)[C@@H](O)[C@H](O[C@@H]2O[C@H](CO)[C@@H](O)[C@H](O)[C@H]2O)[C@H]1O[C@@H]1O[C@H](CO)[C@@H](O)[C@H](O)[C@H]1O)C3 [Rebaudioside M, rebaudioside M] | 1.8 | 0.54 ± 0.03 | 71.8 ± 9.6 | 
OC[C@H]1O[C@H](O[C@]2(CCl)O[C@H](CCl)[C@@H](O)[C@@H]2O)[C@H](O)[C@@H](O)[C@H]1Cl [Sucralose] | 2.3 | 0.18 ± 0.01 | 252 ± 36 | 
CC1=CC(=O)NS(=O)(=O)O1 [Acesulfame K, acesulfame K] | 0.7 | 0.04 ± 0.01 | 410 ± 242 | 
brazzein (QDKCKKVYENYPVSKCQLANQCNYDCKLDKHARSGECFYDEKRNLQCICDYCEY; ends and bridges not checked; cysteine pairing not given here; UniProt P56552 1-54, looked up) [sweet-tasting protein obtained by recombinant production using the yeast Pichia pastoris] | 1.9 | 0.65 ± 0.01 |  | 212.2 ± 8.6
thaumatin | 3.0 | 0.42 ± 0.03 |  | 
COC(=O)[C@H](Cc1ccccc1)NC(=O)[C@H](CC(=O)O)NCCC(C)(C)C [Neotame] | 1.5 | 0.22 ± 0.01 | 1.82 ± 0.12 | 
C[C@H](CC[C@@H](O[C@@H]1O[C@H](CO[C@@H]2O[C@H](CO)[C@@H](O)[C@H](O)[C@H]2O)[C@@H](O)[C@H](O)[C@H]1O[C@@H]1O[C@H](CO)[C@@H](O)[C@H](O)[C@H]1O)C(C)(C)O)[C@H]1CC[C@@]2(C)[C@@H]3CC=C4[C@@H](CC[C@H](O[C@@H]5O[C@H](CO[C@@H]6O[C@H](CO)[C@@H](O)[C@H](O)[C@H]6O)[C@@H](O)[C@H](O)[C@H]5O)C4(C)C)[C@]3(C)[C@H](O)C[C@]12C [Mogroside V, mogroside V] | 2.1 | 0.47 ± 0.02 | 65.5 ± 5.4 | 
COc1ccc(CCC(=O)c2c(O)cc(O[C@@H]3O[C@H](CO)[C@@H](O)[C@H](O)[C@H]3O[C@@H]3O[C@@H](C)[C@H](O)[C@@H](O)[C@H]3O)cc2O)cc1O [NHDC, neohesperidin dihydrochalcone] | 3.0 | 0.29 ± 0.01 | 150 ± 19.6 | 
B1 |  |  | 31.2 ± 3.5 | 
